Experimental data as given in patent publication US9993462B2, “Hydantoin derivative-containing pharmaceutical composition” (Chugai Seiyaku Kabushiki Kaisha, priority 2014, dated 2018).

How the values were obtained:
[1] = test system: TPTX rat; assay: Calcemic action in the TPTX rat model; type: in vivo; settings: TPTX rats, 30 mg/kg oral
Description: Four-week old female Crl:CD(SD) rats were obtained from Charles River Japan (Atsugi Breeding Center), and were acclimated to standard laboratory conditions of 20-26° C. and 35-75% humidity for one week. The rats were given tap water and were fed ad libitum with standard rodent chow (CE-2) (CLEA Japan, Inc.) containing 1.1% calcium, 1.0% phosphoric acid, and 250 IU/100 g of vitamin D3.
TPTX was performed on five-week old rats. Some of the individuals were subjected to sham operation (Sham). Individuals whose serum Ca concentration was less than 8 mg/dL on four days after the operation were selected for use as TPTX rats. On five days after the operation, the rats were assigned to eight TPTX groups and one Sham group (n=5, each group) based on their body weight and serum Ca concentration measured on four days after the operation. The solvent alone was orally administered to the Sham group and the TPTX-Vehicle group at a volume of 10 mL/kg. Each test article was orally administered individually to each TPTX test article group by dissolving it in a solvent at a dose of 30 mg/10 mL/kg. The solvent composition was 10% dimethylsulfoxide (Wako Pure Chemical Industries, Ltd.), 10% Cremophor EL (Sigma-Aldrich Japan LLC), 20% hydroxypropyl-β-cyclodextrin (Nihon Shokuhin Kako Co., Ltd.), glycine (Wako Pure Chemical Industries, Ltd.); and the pH was adjusted to 10. Immediately before administration of each sample, Pre-blood collection was performed, and blood collection was carried out at 2, 6, 10, and 24 hours after administration to measure the serum Ca concentration. Each blood collection was carried out from the jugular vein under isoflurane inhalation anesthesia.
Serum Ca measurement: Serum obtained by centrifugation from the collected blood was measured by using an automatic analyzer TBA-120FR (Toshiba Medical Systems Corporation).
For statistical analysis of the animal studies, data are shown as mean±standard error (SE). Statistical analysis were performed by unpaired test of the SAS Preclinical Package (Ver. 5.00.010720, SAS Institute Japan, Tokyo, Japan).

[2] = test system: rabbit articular chondrocytes; assay: Suppression of terminal differentiation of rabbit articular chondrocytes (alkaline phosphatase and alizarin red staining); type: cell-based; settings: BMP-2 100 ng/mL, Compound 7 10^−7 to 10^−5 mol/L, PTH(1-34) 10^−10 to 10^−7 mol/L
Description: NZW rabbits (4-week old, Oriental Yeast Co., Ltd.) were euthanized, and then the articular cartilage of the lower leg bone was collected, and transferred to a 50-mL test tube (Nippon Becton Dickinson Company). PBS (Nacalai Tesque, Inc.) containing 1% trypsin (Wako Pure Chemical Industries, Ltd.) was added to this, and the soft tissue was digested at 37° C. for one hour. This was followed by centrifugation at 1,200 rpm for five minutes, then supernatant was removed and PBS(−) was added to suspend the cartilage tissue. This was centrifuged at 1,200 rpm for five minutes, followed by removal of the supernatant, and washed three times by suspending in PBS(−). This was centrifuged at 1,200 rpm for five minutes, and then the cell pellet was digested by treatment with DMEM (Life Technologies Japan, Ltd.) containing 0.2% Type II collagenase (CLS-2, Worthington Biochemical Corp.) at 37° C. for three hours. Fetal bovine serum (Life Technologies Japan, Ltd.) was added at 10% v/v to stop the reaction, and this was vigorously pipetted using a 10-mL pipette (Nippon Becton Dickinson Company) to isolate the chondrocytes. This was centrifuged at 1,200 rpm for five minutes, followed by removal of the supernatant, and washed three times by suspending in 10% FCS-containing DMEM, and the chondrocytes were seeded at 1×10^4 cells/well on an I-type collagen-coated 96-well culture plate (AGC TECHNO GLASS CO., LTD.). Medium exchange was performed three times a week; and after the cells reached confluency, they were cultured in DMEM containing 100 μg/mL L-ascorbic acid phosphate magnesium salt n-hydrate (Wako Pure Chemical Industries, Ltd.), 10 mmol/L β-glycerophosphate pentahydrate (Wako Pure Chemical Industries, Ltd.) and 10% FCS. The following conditions were used to culture the cells, and alkaline phosphatase staining (cultured for 14 days) and alizarin red staining (cultured for 21 days) were performed to evaluate terminal differentiation of chondrocytes.
Alkaline phosphatase staining was performed by discarding the medium, then washing the chondrocytes once with 200 mmol/L Tris-HCl pH8.2 buffer, staining the cells according to the protocol supplied with the alkaline phosphatase staining kit (Vector Red Alkaline Phosphatase Substrate Kit I, Vector Laboratories, Inc.), and taking photographs with an inverted microscope (Nikon Corporation) (4× objective).
Alizarin red staining was performed by discarding the medium, then washing the chondrocytes twice with PBS, fixing the cells using 100% ethanol (Wako Pure Chemical Industries Ltd.) for 15 minutes, discarding the ethanol, and then staining with 1% alizarin red S (Wako Pure Chemical Industries Ltd.) for 15 minutes, followed by washing with distilled water; and photographs were taken with an inverted microscope.

[3] = test system: normal rats; assay: Growth plate cartilage histology after four weeks of repeated oral administration to normal rats; type: in vivo, rat
Description: Female RccHan: WIST rats obtained from Japan Laboratory Animals Inc. were acclimated for at least one week under standard laboratory conditions of 20° C. to 26° C. and 30% to 70% humidity, and then used in experiments. The rats had free access to tap water and a standard rodent diet (CE-2, Clea Japan Inc.) containing 1.1% calcium, 1.0% phosphoric acid, and 250 IU/100 g vitamin D3.
After body weight measurement for the six-week old rats, they were divided into groups so that the average body weight of each group of ten rats would be even. From the day following group division, all rats were administered once a day repeatedly for four weeks. The solvent (vehicle) was orally administered to the Vehicle-Control group. To the Compound 7-6 mg/kg group, Compound 7-60 mg/kg group, and Compound 7-600 mg/kg group, Compound 7 suspended in the vehicle was administered orally at a dose of 6 mg/kg, 60 mg/kg, and 600 mg/kg, respectively. For all groups, the volume of administration was 2 mL/kg. Propylene glycol (special grade, Kanto Chemical Co., Inc.) was used for the vehicle. The rats were euthanized under anesthesia one day after the final administration by collecting blood from the abdominal aorta, and then autopsy was performed to collect the femur. The femur was fixed using a 10% neutral buffered formalin solution, and after demineralization, samples of paraffin-embedded tissue sections (hematoxylin-eosin stained) were prepared. Distal ends of the femur of the produced samples were observed histopathologically under a light microscope.

[4] = test system: normal rats; assay: Bone mineral density after four weeks of repeated intravenous administration to normal rats; type: in vivo, rat; settings: intravenous once a day for four weeks
Description: Female RccHan: WIST rats obtained from Japan Laboratory Animals Inc. were acclimated for one week or longer under standard laboratory conditions of 20° C. to 26° C. and 30% to 70% humidity, and then used in experiments. The rats had free access to tap water and a standard rodent diet (CR-LPF) (Oriental Yeast Co., Ltd.).
Intravenous catheter was placed into eight-week old rats. The catheter was inserted from the femoral vein in the inguinal region, and the tip was extended into the caudal vena cava for placement at that site. The body weight was determined in the first week post-surgery, and the rats were divided into groups of ten animals per group so that the average body weight of each group would be even. Two days after group division, all rats were intravenously administered once a day repeatedly for four weeks. Administration was carried out by connecting an infusion pump (MEDFUSION SYRINGE INFUSION PUMP Model 2001) to the indwelling catheter.
The solvent (vehicle) was administered intravenously to the Vehicle-Control group. To the Compound 7-20 mg/kg, −30 mg/kg, and −50 mg/kg groups, Compound 7 dissolved in the vehicle was administered intravenously at a dose of 20 mg/kg, 30 mg/kg, and 50 mg/kg, respectively. For all groups, the administration volume was 5 mL/kg and the administration speed was 5 mL/kg/minute. The composition of the vehicle used was 5% dimethyl sulfoxide (Wako Pure Chemical Industries, Ltd.), 25% propylene glycol (Kanto Chemical Co., Inc.)/20% ethanol (Junsei Chemical Co., Ltd.)/15% hydroxypropyl-β-cyclodextrin (Nihon Shokuhin Kako Co., Ltd)/300 mM glycine (Wako Pure Chemical Industries, Ltd.)/192 mM sodium hydroxide (Wako Pure Chemical Industries, Ltd.)/physiological saline solution (Otsuka Pharmaceutical Factory, Inc.). Rats were euthanized under anesthesia the day after final administration by collecting blood from the abdominal aorta, and then autopsy was performed to collect the lumbar spine, lower leg bone, and mandible. The lumbar spine, lower leg bone, and mandible were stored in 70% ethanol. The bone mineral densities of the lumbar spine (second to fourth lumbar vertebrae), lower leg bone, and mandible were determined using a dual X-ray bone mineral scanner (DCS-600EX, Aloka).
The data are shown as mean value+standard error (SE). SAS preclinical package ver. 5.00 (SAS Institute Japan) was used to perform the following statistical analyses. The significance level was set to 5% on both sides. With regard to the lumbar spine, lower leg bone, and mandible bone mineral density, parametric Dunnett multiple comparison (*P<0.05) was performed for the three dosage groups of Compound 7 with the Vehicle-Control group as control.

[5] = 60 mg/kg oral once a day for four weeks, 10 per group
[6] = 600 mg/kg oral once a day for four weeks, 10 per group

## Cc1cc(N2C(=O)NC(=O)C2(C)C)cc(C)c1CCS(=O)(=O)N1CCC2(CC1)N=C(c1ccc(OC(F)(F)F)cc1)NC2=O [Compound 7, 1-(3,5-dimethyl-4-(2-((4-oxo-2-(4-(trifluoromethoxy)phenyl)-1,3,8-triazaspiro[4.5]deca-1-en-8-yl)sulfonyl)ethyl)phenyl)-5,5-dimethylimidazolidine-2,4-dione]
[1]
  achievement of the therapeutic target range of serum Ca concentration of 7.6 to 8.8 mg/dL: achieved the therapeutic target range
[1]; up to 24 hours after administration
  change of serum Ca concentration from the Pre-value (in words): large positive changes from the Pre-value
[2]; cultured for 14 days
  alkaline phosphatase activity (alkaline phosphatase staining): suppressed alkaline phosphatase activity in a concentration-dependent manner
[2]; cultured for 21 days
  alizarin red staining property (calcification): suppressed the alizarin staining property in a concentration-dependent manner
[3]; [5]
  Number of cases in which growth plate cartilage thickening was observed, Grade 1: 5
  Number of cases in which growth plate cartilage thickening was observed, Grade 2: 3
  Number of cases in which growth plate cartilage thickening was observed, Overall: 8
[3]; [6]
  Number of cases in which growth plate cartilage thickening was observed, Grade 3: 1
  Number of cases in which growth plate cartilage thickening was observed, Grade 4: 9
  Number of cases in which growth plate cartilage thickening was observed, Overall: 10
[3]; 6, 60, 600 mg/kg oral once a day for four weeks
  thickening of the femoral growth plate cartilage in comparison to the Vehicle-Control group (in words): dose-dependent thickening
[3]; one individual of the 600 mg/kg group, from the tissue image of FIG. 8 (Vehicle-Control individual approximately 390 μm)
  width of a representative growth plate cartilage: approximately 2940 μm
[4]; 20 mg/kg
  percentage of increase in the lumbar spine bone mineral density with respect to the Vehicle-Control group: 16%
  percentage of increase of bone mineral density in the lower leg bone with respect to the Vehicle-Control group: 7%
[4]; 30 mg/kg
  percentage of increase in the lumbar spine bone mineral density with respect to the Vehicle-Control group: 21%
  percentage of increase of bone mineral density in the lower leg bone with respect to the Vehicle-Control group: 16%
  percentage of increase of mandible bone mineral density relative to the Vehicle-Control group: 7%
[4]; 50 mg/kg
  percentage of increase in the lumbar spine bone mineral density with respect to the Vehicle-Control group: 25%
  percentage of increase of bone mineral density in the lower leg bone with respect to the Vehicle-Control group: 19%
